Tests used:
Pseudomonas aeruginosa = test: Antimicrobial activity against Pseudomonas aeruginosa GC 1764 expressing AmpC in presence of 4 ug/mL piperacillin; assay type: functional
[1] = Inhibition of Enterobacter cloacae class C beta lactamase GC1
Escherichia coli [2] = test: Antimicrobial activity against Escherichia coli GC 2920 expressing IRT2 in presence of 4 ug/mL piperacillin; assay type: functional
Escherichia coli [3] = test: Antimicrobial activity against Escherichia coli GC 2847 expressing TEM1 in presence of 4 ug/mL piperacillin; assay type: functional
Serratia marcescens [4] = test: Antimicrobial activity against Serratia marcescens GC 1781 expressing Sme1 and AmpC in presence of 4 ug/mL piperacillin; assay type: functional
Escherichia coli [5] = test: Antimicrobial activity against Escherichia coli GC 2844 in presence of 4 ug/mL piperacillin; assay type: functional
Beta-lactamase = Beta-lactamase (Enterobacter cloacae, UniProt P05364)
Beta-lactamase, sequence (P05364 whole entry): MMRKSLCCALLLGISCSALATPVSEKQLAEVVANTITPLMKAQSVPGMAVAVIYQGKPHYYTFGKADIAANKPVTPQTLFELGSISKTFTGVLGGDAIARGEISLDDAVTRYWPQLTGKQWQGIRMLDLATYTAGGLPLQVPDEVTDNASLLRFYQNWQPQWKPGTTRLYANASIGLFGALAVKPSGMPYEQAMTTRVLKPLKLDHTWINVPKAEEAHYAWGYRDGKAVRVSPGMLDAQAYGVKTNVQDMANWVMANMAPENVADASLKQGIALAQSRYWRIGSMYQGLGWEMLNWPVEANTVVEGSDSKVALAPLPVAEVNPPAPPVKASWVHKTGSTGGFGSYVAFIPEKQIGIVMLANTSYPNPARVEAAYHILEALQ
Description: Inhibition of Enterobacter cloacae AmpC

Escherichia coli [6] = test: Antimicrobial activity against Escherichia coli GC 2805 expressing CcrA in presence of 4 ug/mL piperacillin; assay type: functional
Serratia marcescens [7] = test: Antimicrobial activity against Serratia marcescens GC 4142 expressing AmpC in presence of 4 ug/mL piperacillin; assay type: functional
Escherichia coli [8] = test: Antimicrobial activity against Escherichia coli GC 2252 expressing IRT2 in presence of 4 ug/mL piperacillin; assay type: functional
Escherichia coli [9] = test: Antimicrobial activity against Escherichia coli GC 2203 in presence of 4 ug/mL piperacillin; assay type: functional
Beta-lactamase SHV-1 = target: T1, Beta-lactamase SHV-1 (Escherichia coli, UniProt P0AD63); test: Inhibition of Escherichia coli SHV1
T1 sequence (P0AD63 whole entry): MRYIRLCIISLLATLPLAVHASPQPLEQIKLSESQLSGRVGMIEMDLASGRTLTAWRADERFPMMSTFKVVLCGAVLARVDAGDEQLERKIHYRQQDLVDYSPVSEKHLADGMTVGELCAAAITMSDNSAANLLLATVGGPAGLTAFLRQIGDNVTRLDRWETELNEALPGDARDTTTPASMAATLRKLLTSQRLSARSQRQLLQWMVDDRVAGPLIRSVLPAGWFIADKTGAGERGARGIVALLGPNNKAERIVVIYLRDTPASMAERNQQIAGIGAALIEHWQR

Klebsiella pneumoniae = test: Antimicrobial activity against Klebsiella pneumoniae GC 2825 in presence of 4 ug/mL piperacillin; assay type: functional
Enterobacter cloacae [10] = test: Antimicrobial activity against Enterobacter cloacae GC 1477 expressing AmpC in presence of 4 ug/mL piperacillin; assay type: functional
Enterobacter cloacae [11] = test: Antimicrobial activity against Enterobacter cloacae GC 1475 expressing P99 in presence of 4 ug/mL piperacillin; assay type: functional
Escherichia coli [12] = test: Antimicrobial activity against Escherichia coli GC 2804 expressing Imp in presence of 4 ug/mL piperacillin; assay type: functional
Enterobacter cloacae [13] = test: Antimicrobial activity against Enterobacter cloacae GC 2071 expressing Imi1 and AmpC in presence of 4 ug/mL piperacillin; assay type: functional
Staphylococcus aureus = test: Antimicrobial activity against Staphylococcus aureus GC 2216 in presence of 4 ug/mL piperacillin; assay type: functional
[14] = target: Metallo-beta-lactamase type 2 (Bacteroides fragilis, UniProt P25910); test: Inhibition of Bacteroides fragilis CcrA
Metallo-beta-lactamase type 2, sequence (P25910 whole entry): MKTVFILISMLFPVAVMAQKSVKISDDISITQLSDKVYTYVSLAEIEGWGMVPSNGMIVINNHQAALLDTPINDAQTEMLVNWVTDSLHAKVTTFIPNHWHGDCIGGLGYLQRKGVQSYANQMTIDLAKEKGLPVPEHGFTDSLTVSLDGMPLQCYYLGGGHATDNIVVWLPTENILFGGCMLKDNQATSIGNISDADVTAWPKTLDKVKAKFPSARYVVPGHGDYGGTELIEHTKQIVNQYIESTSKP

Beta-lactamase TEM = Beta-lactamase TEM (Escherichia coli, UniProt P62593); test: Inhibition of Escherichia coli TEM1
Beta-lactamase TEM, sequence (P62593 whole entry): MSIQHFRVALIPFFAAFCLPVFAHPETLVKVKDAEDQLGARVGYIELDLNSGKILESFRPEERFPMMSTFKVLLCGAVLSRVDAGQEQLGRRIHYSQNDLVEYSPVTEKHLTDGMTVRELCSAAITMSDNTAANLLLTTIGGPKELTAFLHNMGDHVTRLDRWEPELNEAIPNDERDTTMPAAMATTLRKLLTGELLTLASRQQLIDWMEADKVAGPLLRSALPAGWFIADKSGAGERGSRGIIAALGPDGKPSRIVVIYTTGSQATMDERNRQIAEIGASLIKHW

SMILES	MIC (Pseudomonas aeruginosa)	IC50 [1]	MIC (Escherichia coli [2])	MIC (Escherichia coli [3])	MIC (Serratia marcescens [4])	MIC (Escherichia coli [5])	IC50 (Beta-lactamase)	MIC (Escherichia coli [6])	MIC (Serratia marcescens [7])	MIC (Escherichia coli [8])	MIC (Escherichia coli [9])	IC50 (Beta-lactamase SHV-1)	MIC (Klebsiella pneumoniae)	MIC (Enterobacter cloacae [10])	MIC (Enterobacter cloacae [11])	MIC (Escherichia coli [12])	MIC (Enterobacter cloacae [13])	MIC (Staphylococcus aureus)	IC50 [14]	IC50 (Beta-lactamase TEM)
O=C([O-])C1=CS[C@@H]2/C(=C\c3cn4c5c(sc4n3)CCC5)C(=O)N12.[Na+]	2 µg/mL	3.8 nM	2 µg/mL	4 µg/mL	1 µg/mL	2 µg/mL	2 nM	> 64 µg/mL	2 µg/mL	8 µg/mL	2 µg/mL	12 nM	4 µg/mL	16 µg/mL	16 µg/mL	< 0.06 µg/mL	4 µg/mL	2 µg/mL		
Cc1ccc2c(c1)sc1nc(/C=C3/C(=O)N4C(C(=O)[O-])=CS[C@H]34)cn12.[Na+]	16 µg/mL		2 µg/mL	4 µg/mL	0.5 µg/mL	2 µg/mL	1 nM	> 64 µg/mL	1 µg/mL	16 µg/mL	1 µg/mL		8 µg/mL	32 µg/mL	8 µg/mL	< 0.06 µg/mL	8 µg/mL	< 0.06 µg/mL	103 nM	3 nM
O=C([O-])C1=CS[C@@H]2/C(=C\c3cn4c(n3)sc3ccccc34)C(=O)N12.[Na+]	4 µg/mL		2 µg/mL	2 µg/mL	0.5 µg/mL	2 µg/mL	1 nM	> 64 µg/mL	1 µg/mL	8 µg/mL	2 µg/mL		16 µg/mL	16 µg/mL	8 µg/mL	< 0.06 µg/mL	2 µg/mL	< 0.06 µg/mL		
Cc1cccc2sc3nc(/C=C4/C(=O)N5C(C(=O)[O-])=CS[C@H]45)cn3c12.[Na+]	2 µg/mL		2 µg/mL	8 µg/mL	4 µg/mL	2 µg/mL	2 nM	> 64 µg/mL	4 µg/mL	16 µg/mL	2 µg/mL		16 µg/mL	32 µg/mL	16 µg/mL	< 0.06 µg/mL	16 µg/mL	< 0.06 µg/mL	370 nM	9 nM
O=C([O-])C1=CS[C@@H]2/C(=C\c3cn4c(n3)sc3cc(F)ccc34)C(=O)N12.[Na+]	4 µg/mL		2 µg/mL	8 µg/mL	2 µg/mL	2 µg/mL	2 nM	> 64 µg/mL	2 µg/mL	16 µg/mL	2 µg/mL		16 µg/mL	32 µg/mL	16 µg/mL	< 0.06 µg/mL	8 µg/mL	< 0.06 µg/mL		8 nM
COc1ccc2c(c1)sc1nc(/C=C3/C(=O)N4C(C(=O)[O-])=CS[C@H]34)cn12.[Na+]	32 µg/mL		2 µg/mL	16 µg/mL	2 µg/mL	2 µg/mL	2 nM	> 64 µg/mL	2 µg/mL	8 µg/mL	1 µg/mL		64 µg/mL	64 µg/mL	16 µg/mL	< 0.06 µg/mL	16 µg/mL	< 0.06 µg/mL		
O=C([O-])C1=CS[C@@H]2/C(=C\c3cn4c(n3)sc3cc(Cl)ccc34)C(=O)N12.[Na+]	16 µg/mL		1 µg/mL	4 µg/mL	1 µg/mL	2 µg/mL	3 nM	> 64 µg/mL	2 µg/mL	16 µg/mL	1 µg/mL		32 µg/mL	16 µg/mL	8 µg/mL	< 0.06 µg/mL	8 µg/mL	< 0.06 µg/mL	74 nM	6 nM
C[C@]1(Cn2ccnn2)[C@H](C(=O)[O-])N2C(=O)C[C@H]2S1(=O)=O.[Na+] [TAZOBACTAM SODIUM]	> 64 µg/mL		4 µg/mL	2 µg/mL	1 µg/mL	2 µg/mL		> 64 µg/mL	> 64 µg/mL	2 µg/mL	> 64 µg/mL		> 64 µg/mL	> 64 µg/mL	> 64 µg/mL	0.12 µg/mL	> 64 µg/mL	64 µg/mL		

Reference: ChEMBL document CHEMBL1149281, “Structure-activity relationship of 6-methylidene penems bearing tricyclic heterocycles as broad-spectrum beta-lactamase inhibitors: crystallographic structures show unexpected binding of 1,4-thiazepine intermediates” (J Med Chem, 2004)
